The subject of data set [1] is NSLC xenograft model LXFE 397. Description: Gemcitabine and compound 15 in human xenograft non small cell lung cancer model LXFE 397. Type of data set: in vivo, NMRI nude mice. The procedure: Female NMRI nude mice received unilateral tumor implants subcutaneously in the left flank while under isoflurane anesthesia with human LXFE 397 (squamous cell carcinoma, differentiation: poor) until tumors were palpable and had reached a volume of 50-150 mm^3. Animals were kept in cages, the temperature inside the cages maintained at 25±1° C. with a relative humidity of 45-65% and an air change rate in the cage of 60-fold per hour. The animals were fed with autoclaved Teklad Global 19% Protein Extruded Diet (T.2019S.12) from Harlan Laboratories and had access to sterile filtered and acidified (pH 2.5) tap water which was changed twice weekly. Feed and water are provided ad libitum. […] Animals are routinely monitored twice daily on working days and daily on Saturdays and Sundays. Starting on day 0, animals are weighed twice a week. Relative body weights (RBW) of individual animals are calculated by dividing the individual absolute body weight on day X (BWx) by the individual body weight on the day of randomization. The tumor volume is determined by a two-dimensional measurement with calipers on the day of randomization (Day 0) and then twice weekly. Tumor volumes are calculated according to the following equation: Tumor Vol [mm^3]=a [mm]×b^2 [mm^2]×0.5, where “a” is the largest diameter and “b” is the perpendicular diameter of the tumor representing an idealized ellipsoid. The relative volume of an individual tumor on day X (RTVx) is calculated by dividing the absolute volume [mm^3] of the respective tumor on day X (Tx) by the absolute volume of the same tumor on the day of randomization. Schedules are applied to the extent that animal welfare policies allow. Termination of individual mice at tumor volume >2000 mm^3. Stock solutions of compound 15 were prepared as follows for the two treatment groups: • 1) 8 mice, 40 g average weight: 24 mg/kg Gemcitabine equivalents≡78.48 mg/kg≡3.14 mg/mouse. Sample preparation: 154 mg weighed in a 20 mL vial dissolved in 14.7 mL 20 mM sodium phosphate buffer pH 7; 4 aliquots with 3.6 mL each in 10 mL vials. Frozen in liquid nitrogen, lyophilized (>48 h) and stoppered. • 2) 8 mice, 40 g average weight: 36 mg/kg Gemcitabine equivalents≡117.7 mg/kg≡4.71 mg/mouse. Sample preparation: 231 mg weighed in a 20 mL vial dissolved in 14.7 mL 20 mM sodium phosphate buffer pH 7; 4 aliquots with 3.6 mL each in 10 mL vials. Frozen in liquid nitrogen, lyophilized (>48 h) and stoppered.
On the day of treatment the lyophilized samples were dissolved in 20 mM sodium phosphate buffer pH 7, containing 5% Glucose and injected intravenously. […]
(In general: Xenograft models place foreign cells or tissue in a host animal.)

Data set [2] deals with human non-small cell carcinoma xenograft model LXFE 937. In words: Gemcitabine and compound 15 in human non-small cell carcinoma xenograft model LXFE 937. Type of data set: in vivo, NMRI nude mice. Particulars: for Body weight change (BWC) versus control: compound 15 18 mg/kg gemcitabine equivalents i.v. days 0, 3, 7, 10, 14, 17, 21, 24. The procedure:
Female NMRI nude mice received unilateral tumor implants subcutaneously in the left flank while under isoflurane anesthesia with human LXFE 937 tumor pieces until tumors were palpable and had reached a volume of ˜100 mm^3. Animals were kept in cages, the temperature inside the cages maintained at 25±1° C. with a relative humidity of 45-65% and an air change rate in the cage of 60-fold per hour. The animals were fed with autoclaved Teklad Global 19% Protein Extruded Diet (T.2019S.12) from Harlan Laboratories and had access to sterile filtered and acidified (pH 2.5) tap water which was changed twice weekly. Feed and water were provided ad libitum. […] Animals were routinely monitored twice daily on working days and daily on Saturdays and Sundays. Starting on day 0, animals were weighed twice a week. Relative body weights (RBW) of individual animals are calculated by dividing the individual absolute body weight on day X (BWx) by the individual body weight on the day of randomization. The tumor volume is determined by a two-dimensional measurement with calipers on the day of randomization (Day 0) and then twice weekly. Tumor volumes are calculated according to the following equation: • Tumor Vol [mm^3]=a [mm]×b^2 [mm^2]×0.5, where “a” is the largest diameter and “b” is the perpendicular diameter of the tumor representing an idealized ellipsoid. The relative volume of an individual tumor on day X (RTVx) is calculated by dividing the absolute volume [mm^3] of the respective tumor on day X (Tx) by the absolute volume of the same tumor on the day of randomization. Schedules are applied to the extent that animal welfare policies allow. Termination of individual mice at tumor volume >2000 mm^3. Stock solutions of compound 15 were prepared as follows for the two treatment groups: • 1) 8 mice, 40 g average weight: 2×18 mg/kg gemcitabine equivalents (bi-weekly dosing; d 0, 3, 7, 10 etc. for 4 weeks)≡58.4 mg/kg≡2.35 mg/mouse. Sample preparation: 115.5 mg weighed in a 10 mL vial dissolved in 7.35 mL 20 mM sodium phosphate buffer pH 7; 4 aliquots with 1.86 mL each in 10 mL vials. Frozen in liquid nitrogen, lyophilized (>48 h) and stoppered. On the day of treatment the lyophilized samples were dissolved in 20 mM sodium phosphate buffer pH 7, containing 5% Glucose and injected intravenously. Intravenous administration with vehicle (20 mM sodium phosphate buffer, 5% D-glucose—pH 7.0), gemcitabine (dissolved in 5% D-glucose; dose 240 mg/kg) and carried out on 1, 8, 15, and 22 and compound 15 (dissolved in 20 mM sodium phosphate buffer, 5% D-glucose—pH 7.0; 18 mg/kg gemcitabine equivalents) was carried on days 0, 3, 7, 10, 14, 17, 21, and 24.

Data set [3] has as its system human ovarian carcinoma xenograft model OVXF 899. Description: Gemcitabine and compound 15 in human ovarian carcinoma xenograft model OVXF 899. It counts as in vivo, NMRI nude mice. Particulars: for Body weight change (BWC) versus control: compound 15 18 mg/kg gemcitabine equivalents i.v. days 1, 4, 8, 11, 15, 18, 22, 25. The procedure: Animals were kept in cages, the temperature inside the cages maintained at 25±1° C. with a relative humidity of 45-65% and an air change rate in the cage of 60-fold per hour. […] Feed and water were provided ad libitum. […] Animals were routinely monitored twice daily on working days and daily on Saturdays and Sundays. Starting on day 0, animals were weighed twice a week. Relative body weights (RBW) of individual animals are calculated by dividing the individual absolute body weight on day X (BWx) by the individual body weight on the day of randomization. The tumor volume is determined by a two-dimensional measurement with calipers on the day of randomization (Day 0) and then twice weekly. […] Schedules are applied to the extent that animal welfare policies allow. […] Frozen in liquid nitrogen, lyophilized (>48 h) and stoppered.

Data set [4] deals with human pancreatic carcinoma xenograft model Panc11159. Description: Gemcitabine and compound 15 in human pancreatic carcinoma xenograft model Panc11159. It counts as in vivo, NMRI nude mice. The settings on record: for tumor volumes (change): at day 85, gemcitabine 240 mg/kg, compound 15 18 mg/kg gemcitabine equivalents; for Body weight change (BWC) versus control: gemcitabine 240 mg/kg i.v. d 36, 43, 50, 57, compound 15 18 mg/kg gemcitabine equivalents i.v. d 36, 40, 43, 47, 50, 54, 57, 60. The procedure:
Female NMRI nude mice (nu/nu) received unilateral Panc11159 tumor pieces subcutaneously implanted until tumors were palpable and had reached a volume of ˜200 mm^3. Animals were kept in cages (Macrolon Type-II wire-mesh), the temperature inside the cages maintained at 22±1° C. with a relative humidity of 50±10%. Light period: artificial; 12-hours dark/12 hours light rhythm (light 06.00 to 18.00 hours). The health of the mice was examined at the start of the experiment and twice per day during the experiment; identification: Ear mark and cage labels. The animals were fed with Ssniff NM, Soest, Germany and had access to autoclaved and acidified (pH 4.0) drinking. Feed and water were provided ad libitum.
Body weight change was performed two or three times per week. Tumor diameters (median and medium) were measured two or three times a week with a caliper. Tumor volumes were calculated according to V=(length×(width)2)/2. For calculation of the relative tumor volume (RTV) the tumor volumes at each measurement day were related to the day of first treatment. Stock solutions of compound 15 were prepared as follows for the two treatment groups: • 10 mice, 30-40 g average weight: 2×18 mg/kg gemcitabine equivalents (bi-weekly dosing for 4 weeks)≡58.4 mg/kg≡2.35 mg/mouse. Sample preparation: 115.5 mg weighed in a 10 mL vial dissolved in 7.35 mL 20 mM sodium phosphate buffer pH 7; 4 aliquots with 1.86 mL each in 10 mL vials. Frozen in liquid nitrogen, lyophilized (>48 h) and stoppered.
On the day of treatment the lyophilized samples were dissolved in 20 mM sodium phosphate buffer pH 7, containing 5% Glucose and injected intravenously. Intravenous administration with vehicle (20 mM sodium phosphate buffer, 5% D-glucose—pH 7.0) gemcitabine (dissolved in 5% D-glucose; dose 240 mg/kg) and carried out on d 36, 43, 50, 57 compound 15 (dissolved in 20 mM sodium phosphate buffer, 5% D-glucose—pH 7.0; 18 mg/kg gemcitabine equivalents) was carried on days d 36, 40, 43, 47, 50, 54, 57, and 60.

For data set [5], the target named is T1, cytidine deaminase (Homo sapiens, UniProt P32320).
T1 construct: host or cells: endogenous enzyme in the dosed subject (in vivo metabolism)
T1 sequence (P32320 whole entry): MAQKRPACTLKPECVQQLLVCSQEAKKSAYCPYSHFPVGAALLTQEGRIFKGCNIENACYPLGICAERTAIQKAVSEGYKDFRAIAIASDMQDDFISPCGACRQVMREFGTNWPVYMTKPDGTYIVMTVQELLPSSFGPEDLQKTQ
Particulars: recommended dose of ˜1000 mg/m^2; cited from earlier work.

Where [6] appears, read: approximately one seventh of the dose of gemcitabine, p<0.05.
Setting [7] is: gemcitabine 240 mg/kg i.v. days 1, 8, 15, 22.

Structures are written as SMILES.

For `C/C(=N\NC(=O)c1ccc(NC(=O)CCCCCN2C(=O)C=CC2=O)cc1[N+](=O)[O-])c1ccc(C(=O)Nc2ccn([C@@H]3O[C@H](COP(=O)(O)O)C(O)C3(F)F)c(=O)n2)cc1` (stereo partly drawn) [Compound 15], the “antitumor efficacy versus gemcitabine (tumor growth development)” value in data set [1] (24 mg/kg gemcitabine equivalents, one tenth of the dose of gemcitabine, p<0.05) is on record as “superior antitumor efficacy”; in data set [2] (setting [6]) it was “superior antitumor efficacy”; in data set [3] (setting [6]) it was “superior antitumor efficacy”; in data set [4] (setting [6]) it was “superior antitumor efficacy”. Besides, the “Body weight change (BWC) versus control” value is listed as approximately 0.5% in data set [1] (day 27, 24 mg/kg gemcitabine equivalents i.v. days 1, 8, 15, 22); “approximately +2%” in data set [2] (setting [7]); “approximately +10%” in data set [3] (setting [7]); “approximately +3%” in data set [4]. For the same compound, the tumor response entry in data set [2] (˜60 days after the end of therapy, 18 mg/kg gemcitabine equivalents bi-weekly for 4 weeks) is recorded as “complete tumor remissions”; in data set [3] (50 days after the end of therapy, 18 mg/kg gemcitabine equivalents bi-weekly for 4 weeks) it was “complete tumor remissions”. Moreover, in data set [4], the “tumor volumes (change)” value is given as “slight regression or stable disease”.

With `Nc1ccn([C@@H]2O[C@H](CO)[C@@H](O)C2(F)F)c(=O)n1` [gemcitabine], the “Body weight change (BWC) versus control” value in data set [1] (day 23, gemcitabine 240 mg/kg i.v. days 1, 8, 15, 22) is given as “approximately −6%”; in data set [2] (setting [7]), “approximately +10%”; in data set [3] (setting [7]), “approximately +5%”; in data set [4], “approximately +3%”. For the same compound, the “mice sacrificed due to tumor volume exceeding 2000 mm^3” value in data set [1] (on day 23, 8 mice per group, gemcitabine 240 mg/kg) was determined as 2 mice; in data set [2] (between day 78 to 85, 8 mice per group), 2 mice; in data set [3] (on day 74, 8 mice per group), 3 mice. In addition, the “start of tumor regrowth” value in data set [2] (setting [7]) was approximately 20 days after therapy; in data set [3] (setting [7]) it was approximately 10 days after therapy. The average tumor volume in data set [2] (˜50 days after therapy, gemcitabine 240 mg/kg) was approximately 700 mm^3; in data set [3] (50 days after therapy, gemcitabine 240 mg/kg) it was approximately 2000 mm^3. For the same compound, the “tumor volumes (change)” value in data set [4] is “doubled”. Also, the “fraction deactivated by cytidine deaminase to the inactive uridine metabolite and excreted in the urine” value in data set [5] was “approximately 90%”.

The record behind these values is patent US12497417B2, “Delivery systems for controlled drug release” (LADRX CORPORATION, priority 2015, dated 2025).
